Test results taken from patent publication US8871753B2, “Macrocyclic compounds and their use as kinase inhibitors” (Incyte Corporation, priority 2008, dated 2014).
Counter-ions that a name gives are not always drawn. Like-named read-outs stand apart in the source and are kept apart here.

What was measured:
Type in all cases: biochemical
[1] = biological target: T1, human JAK3 (a.a. 781-1124) (Homo sapiens, UniProt P52333); experiment: In vitro JAK kinase assay (HTRF, phosphorylation of a biotinylated peptide), JAK3
T1 construct: JAK3 (a.a. 781-1124); His tag (N); made in house; host or cells: insect cells (baculovirus)
Procedure, shortened: (§1)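 Kinase activity was measured as phosphorylation of a biotinylated peptide, with ATP at 90 μM for JAK1, 30 μM for JAK2 and 3 μM for JAK3. Reactions ran 1 hr at room temperature, were stopped with EDTA plus SA-APC and Eu-Py20, and were read by HTRF after 40 minutes of antibody binding.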

[2] = biological target: T2, human JAK2 (a.a. 828-1132) (Homo sapiens, UniProt O60674); experiment: In vitro JAK kinase assay (HTRF, phosphorylation of a biotinylated peptide), JAK2
T2 construct: JAK2 (a.a. 828-1132); His tag (N); made in house; host or cells: insect cells (baculovirus)
Procedure, shortened: as §1

[3] = biological target: T3, Recombinant Human Anaplastic Lymphoma Kinase (Homo sapiens, UniProt Q9UM73); experiment: ALK HTRF kinase assay
T3 construct: purchased Invitrogen, Carlsbad, Calif
Procedure, shortened: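 Kinase activity of the recombinant human protein is measured on a biotinylated peptide, with a Eu-W1024 anti-phosphotyrosine antibody and streptavidin-allophycocyanin generating the homogeneous time-resolved fluorescence signal. Inhibition curves are fitted to yield IC50.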

[4] = biological target: T4, human JAK1 (a.a. 837-1142) (Homo sapiens, UniProt P23458); experiment: In vitro JAK kinase assay (HTRF, phosphorylation of a biotinylated peptide), JAK1; details: read-out: JAK1 IC50
T4 construct: human JAK1 (a.a. 837-1142); His tag (N); made in house; host or cells: insect cells (baculovirus)
Procedure, shortened: as §1

[5] = biological target: TYK2 (Homo sapiens, UniProt P29597); experiment: TYK2 kinase inhibition (Table A1)
[6] = method AA1 (3 μM ATP) or AA2 (1000 μM ATP), not stated per value
[7] = method AA1 (30 μM ATP) or AA2 (1000 μM ATP), not stated per value
[8] = compound at 500 nM or 1 mM, 90 μM ATP
[9] = method AA1 (90 μM ATP) or AA2 (1000 μM ATP), not stated per value
[10] = compound at a concentration of 500 nM or 1 mM (not specified), cells shown as percentage
[11] = Table B1, cells without percent sign

T1 sequence (P52333 781-1124): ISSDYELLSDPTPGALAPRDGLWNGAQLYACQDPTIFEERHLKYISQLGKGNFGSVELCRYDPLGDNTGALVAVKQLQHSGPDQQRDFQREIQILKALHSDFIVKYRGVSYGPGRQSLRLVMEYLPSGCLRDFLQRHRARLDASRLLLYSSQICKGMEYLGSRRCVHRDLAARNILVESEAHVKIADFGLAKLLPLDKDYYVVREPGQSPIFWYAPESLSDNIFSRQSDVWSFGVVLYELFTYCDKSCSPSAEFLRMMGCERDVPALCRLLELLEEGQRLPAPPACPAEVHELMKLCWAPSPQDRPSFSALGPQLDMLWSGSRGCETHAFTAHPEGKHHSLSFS
T3 sequence (Q9UM73 19-1620): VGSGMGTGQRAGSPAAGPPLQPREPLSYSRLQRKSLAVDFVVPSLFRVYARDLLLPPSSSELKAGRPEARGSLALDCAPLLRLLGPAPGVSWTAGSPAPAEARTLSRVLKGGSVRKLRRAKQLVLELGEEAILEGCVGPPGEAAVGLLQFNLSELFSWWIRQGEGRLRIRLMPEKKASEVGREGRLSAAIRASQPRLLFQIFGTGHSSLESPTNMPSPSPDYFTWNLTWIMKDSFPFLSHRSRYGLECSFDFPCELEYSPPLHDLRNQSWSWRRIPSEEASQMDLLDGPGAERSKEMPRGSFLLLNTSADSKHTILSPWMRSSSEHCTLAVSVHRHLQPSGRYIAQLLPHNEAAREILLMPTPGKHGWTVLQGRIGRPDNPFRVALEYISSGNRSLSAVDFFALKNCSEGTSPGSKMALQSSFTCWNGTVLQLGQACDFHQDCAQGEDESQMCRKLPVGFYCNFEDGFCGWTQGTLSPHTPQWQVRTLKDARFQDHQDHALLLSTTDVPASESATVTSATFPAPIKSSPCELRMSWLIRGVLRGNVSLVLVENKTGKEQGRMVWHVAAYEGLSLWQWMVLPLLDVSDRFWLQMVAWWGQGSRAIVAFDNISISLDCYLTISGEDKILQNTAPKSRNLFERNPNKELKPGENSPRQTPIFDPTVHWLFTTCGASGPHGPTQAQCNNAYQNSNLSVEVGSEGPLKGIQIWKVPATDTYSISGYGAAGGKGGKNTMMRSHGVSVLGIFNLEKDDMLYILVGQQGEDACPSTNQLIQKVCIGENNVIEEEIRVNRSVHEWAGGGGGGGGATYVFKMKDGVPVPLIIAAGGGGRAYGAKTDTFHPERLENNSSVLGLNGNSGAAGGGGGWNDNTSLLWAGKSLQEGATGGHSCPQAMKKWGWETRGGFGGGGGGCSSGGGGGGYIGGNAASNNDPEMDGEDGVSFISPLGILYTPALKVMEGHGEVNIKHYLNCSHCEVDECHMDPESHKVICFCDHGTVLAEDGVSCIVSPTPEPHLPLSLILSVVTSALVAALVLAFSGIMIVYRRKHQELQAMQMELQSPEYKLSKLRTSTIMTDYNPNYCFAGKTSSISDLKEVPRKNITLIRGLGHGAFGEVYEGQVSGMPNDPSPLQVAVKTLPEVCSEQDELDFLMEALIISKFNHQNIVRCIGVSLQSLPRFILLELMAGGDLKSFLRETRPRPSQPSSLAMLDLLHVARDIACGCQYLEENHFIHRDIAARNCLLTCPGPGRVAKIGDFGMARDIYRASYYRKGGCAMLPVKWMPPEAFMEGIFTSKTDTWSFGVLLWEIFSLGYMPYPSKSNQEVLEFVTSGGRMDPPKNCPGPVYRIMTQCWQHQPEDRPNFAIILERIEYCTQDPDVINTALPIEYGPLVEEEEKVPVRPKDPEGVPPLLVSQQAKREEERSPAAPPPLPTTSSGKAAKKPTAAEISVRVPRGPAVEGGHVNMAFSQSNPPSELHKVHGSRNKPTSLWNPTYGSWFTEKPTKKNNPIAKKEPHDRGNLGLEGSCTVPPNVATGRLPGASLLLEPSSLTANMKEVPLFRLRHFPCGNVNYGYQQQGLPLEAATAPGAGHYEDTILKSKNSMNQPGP
Chain of TYK2 (P29597 whole entry): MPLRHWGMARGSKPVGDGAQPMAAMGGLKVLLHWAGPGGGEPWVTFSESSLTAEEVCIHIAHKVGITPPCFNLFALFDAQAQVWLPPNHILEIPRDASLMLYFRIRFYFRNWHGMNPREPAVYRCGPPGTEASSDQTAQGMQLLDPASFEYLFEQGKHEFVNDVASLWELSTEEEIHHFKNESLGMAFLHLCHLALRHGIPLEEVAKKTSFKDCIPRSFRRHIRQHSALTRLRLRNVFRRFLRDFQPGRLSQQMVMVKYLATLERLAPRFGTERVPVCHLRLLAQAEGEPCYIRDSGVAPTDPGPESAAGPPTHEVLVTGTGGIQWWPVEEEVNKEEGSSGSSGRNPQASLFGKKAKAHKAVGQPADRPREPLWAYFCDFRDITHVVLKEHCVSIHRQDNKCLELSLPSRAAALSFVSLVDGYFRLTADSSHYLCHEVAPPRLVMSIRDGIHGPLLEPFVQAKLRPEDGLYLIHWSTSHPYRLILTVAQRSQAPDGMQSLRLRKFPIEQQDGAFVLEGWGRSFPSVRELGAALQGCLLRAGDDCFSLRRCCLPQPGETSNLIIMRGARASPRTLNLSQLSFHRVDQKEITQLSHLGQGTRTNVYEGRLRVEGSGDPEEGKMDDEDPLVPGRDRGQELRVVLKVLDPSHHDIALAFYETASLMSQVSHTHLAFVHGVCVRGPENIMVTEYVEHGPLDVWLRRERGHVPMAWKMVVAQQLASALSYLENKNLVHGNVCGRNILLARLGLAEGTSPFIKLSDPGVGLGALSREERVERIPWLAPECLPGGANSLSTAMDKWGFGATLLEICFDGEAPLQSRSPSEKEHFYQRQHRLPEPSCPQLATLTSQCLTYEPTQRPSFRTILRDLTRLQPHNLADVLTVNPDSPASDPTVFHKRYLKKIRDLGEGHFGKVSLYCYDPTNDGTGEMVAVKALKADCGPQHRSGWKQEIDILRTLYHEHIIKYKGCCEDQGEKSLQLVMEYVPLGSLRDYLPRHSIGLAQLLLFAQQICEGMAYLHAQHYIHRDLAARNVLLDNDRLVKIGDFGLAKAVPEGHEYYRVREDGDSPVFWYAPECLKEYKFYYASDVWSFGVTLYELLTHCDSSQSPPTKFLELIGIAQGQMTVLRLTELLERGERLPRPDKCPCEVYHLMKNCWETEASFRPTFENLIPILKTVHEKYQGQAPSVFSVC
T4 sequence (P23458 849-1154): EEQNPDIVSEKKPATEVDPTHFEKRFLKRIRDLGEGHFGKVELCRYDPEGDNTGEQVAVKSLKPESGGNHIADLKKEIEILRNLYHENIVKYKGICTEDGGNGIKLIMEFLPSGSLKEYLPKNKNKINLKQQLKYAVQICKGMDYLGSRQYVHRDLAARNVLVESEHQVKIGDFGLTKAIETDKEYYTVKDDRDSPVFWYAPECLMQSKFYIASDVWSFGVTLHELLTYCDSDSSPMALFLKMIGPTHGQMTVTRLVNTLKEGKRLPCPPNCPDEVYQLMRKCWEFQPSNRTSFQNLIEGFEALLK
T2 sequence (O60674 828-1132): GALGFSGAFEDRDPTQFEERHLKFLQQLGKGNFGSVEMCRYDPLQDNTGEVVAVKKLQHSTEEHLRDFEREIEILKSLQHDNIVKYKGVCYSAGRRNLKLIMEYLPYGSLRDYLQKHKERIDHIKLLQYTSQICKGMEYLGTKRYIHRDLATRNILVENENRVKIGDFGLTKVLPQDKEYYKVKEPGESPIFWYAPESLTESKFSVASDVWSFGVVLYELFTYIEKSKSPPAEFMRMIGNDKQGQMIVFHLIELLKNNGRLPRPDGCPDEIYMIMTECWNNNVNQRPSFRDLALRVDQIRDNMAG

SMILES: CS(=O)(=O)N1CCC(CC(=O)Nc2ccc3cc2CCc2cncc(c2)Nc2ncc(Cl)c(n2)N3)C1 (stereo not shown) [Example A91, N-[6-Chloro-2,4,8,18,22-pentaazatetracyclo[14.3.1.1(3,7).1(9,13)]docosa-1(20),3(22),4,6,9(21),10,12,16,18-nonaen-12-yl]-2-[1-(methylsulfonyl)pyrrolidin-3-yl]acetamide bis(trifluoroacetate)]
- IC50 [1, 6]: 44 nM
- IC50 [2, 7]: 5.9 nM
- ALK % of inhibition at a concentration of 500 nM or 1 mM [3, 8]: 29%
- IC50 [4, 9]: 3.7 nM
- IC50 [5]: 14 nM

SMILES: CS(=O)(=O)N1CCC(NC(=O)Nc2ccc3cc2CCc2cccc(c2)Nc2ncc(Cl)c(n2)N3)CC1 [Example B182, N-[6-Chloro-2,4,8,22-tetraazatetracyclo[14.3.1.1(3,7).1(9,13)]docosa-1(20),3(22),4,6,9(21),10,12,16,18-nonaen-12-yl]-N′-[1-(methylsulfonyl)piperidin-4-yl]urea trifluoroacetate]
- IC50 ([1]; Table B1): 44 nM
- IC50 ([2]; Table B1): 6.2 nM
- ALK % of inhibition at a concentration of 500 nM or 1 mM [3, 10]: 29%
- IC50 ([4]; Table B1): 1.2 nM
- IC50 ([5]; Table B1): 17 nM

SMILES: COc1ccc(NC(=O)N2CCC(CC(=O)Nc3ccc4cc3CCc3cncc(c3)Nc3ncc(Cl)c(n3)N4)CC2)cc1 [Example A154, 4-(2-{[6-Chloro-2,4,8,18,22-pentaazatetracyclo[14.3.1.1(3,7).1(9,13)]docosa-1(20),3(22),4,6,9(21),10,12,16,18-nonaen-12-yl]amino}-2-oxoethyl)-N-(4-methoxyphenyl)piperidine-1-carboxamide bis(trifluoroacetate)]
- IC50 [1, 6]: > 100 nM
- IC50 [2, 7]: 2.6 nM
- ALK % of inhibition at a concentration of 500 nM or 1 mM [3, 8]: 51%
- IC50 [4, 9]: 0.6 nM
- IC50 [5]: 3.1 nM

SMILES: O=C(Nc1ccc2cc1CCc1cccc(c1)Nc1ncc(Cl)c(n1)N2)c1ccccc1 [Example B29, N-[6-Chloro-2,4,8,22-tetraazatetracyclo[14.3.1.1(3,7).1(9,13)]docosa-1(20), 3(22),4,6,9(21),10,12,16,18-nonaen-12-yl]benzamide trifluoroacetate]
- IC50 ([1]; Table B1): 3.3 nM
- IC50 ([2]; Table B1): 0.48 nM
- IC50 [3, 11]: 96 nM
- IC50 ([4]; Table B1): 0.24 nM
- IC50 ([5]; Table B1): 1.7 nM

SMILES: Cc1cc(C(=O)N2CCN(CC(=O)Nc3ccc4cc3CCc3cncc(c3)Nc3ncc(Cl)c(n3)N4)CC2)no1 [Example A119, N-[6-Chloro-2,4,8,18,22-pentaazatetracyclo[14.3.1.1(3,7).1(9,13)]docosa-1(20),3(22),4,6,9(21),10,12,16,18-nonaen-12-yl]-2-{4-[(5-methylisoxazol-3-yl)carbonyl]piperazin-1-yl}acetamide tris(trifluoroacetate)]
- IC50 [1, 6]: 174 nM
- IC50 [2, 7]: 16 nM
- ALK % of inhibition at a concentration of 500 nM or 1 mM [3, 8]: 15%
- IC50 [4, 9]: 3.6 nM
- IC50 [5]: 8.6 nM

SMILES: O=C(CC1CCN(S(=O)(=O)c2ccccc2C(F)(F)F)CC1)Nc1ccc2cc1CCc1cncc(c1)Nc1ncc(Cl)c(n1)N2 [Example A224, N-[6-Chloro-2,4,8,18,22-pentaazatetracyclo[14.3.1.1(3,7).1(9,13)]docosa-1(20),3(22),4,6,9(21),10,12,16,18-nonaen-12-yl]-2-(1-{[2-(trifluoromethyl)phenyl]sulfonyl}piperidin-4-yl)acetamide bis(trifluoroacetate)]
- IC50 [1, 6]: > 400 nM
- IC50 [2, 7]: > 400 nM
- ALK % of inhibition at a concentration of 500 nM or 1 mM [3, 8]: 30%
- IC50 [4, 9]: 14 nM
- IC50 [5]: > 400 nM

SMILES: Cc1cc(C(=O)Nc2cc3cc(c2)Nc2nc(ncc2Cl)Nc2cccc(c2)CC3)no1 [Example B205, N-[6-Chloro-2,4,8,22-tetraazatetracyclo[14.3.1.1(3,7).1(9,13)]docosa-1(20),3(22),4,6,9(21),10,12,16,18-nonaen-11-yl]-5-methylisoxazole-3-carboxamide trifluoroacetate]
- IC50 ([1]; Table B1): 509 nM
- IC50 ([2]; Table B1): 146 nM
- IC50 [3, 11]: > 10000 nM
- IC50 ([4]; Table B1): 188 nM
- IC50 ([5]; Table B1): > 1000 nM

SMILES: O=C(O)c1cc2cc(c1)Nc1nc(ncc1Cl)Nc1cccc(c1)CC2 [Example B6, 6-Chloro-2,4,8,22-tetraazatetracyclo[14.3.1.1(3,7).1(9,13)]docosa-1(20),3(22),4,6,9(21),10,12,16,18-nonaene-11-carboxylic acid trifluoroacetate]
- IC50 ([1]; Table B1): > 1000 nM
- IC50 ([2]; Table B1): 800 nM
- IC50 [3, 11]: > 1000 nM
- IC50 ([4]; Table B1): > 1000 nM
- IC50 ([5]; Table B1): > 1000 nM

SMILES: O=C(Nc1ccc2cc1CCc1cccc(c1)Nc1ncc(Cl)c(n1)N2)c1ccc(C(F)(F)F)nc1 [Example B77, N-[6-Chloro-2,4,8,22-tetraazatetracyclo[14.3.1.1(3,7).1(9,13)]docosa-1(20), 3(22),4,6,9(21),10,12,16,18-nonaen-12-yl]-6-(trifluoromethyl)nicotinamide bis(trifluoroacetate)]
- IC50 ([1]; Table B1): 7.6 nM
- IC50 ([2]; Table B1): 2.2 nM
- ALK % of inhibition at a concentration of 500 nM or 1 mM [3, 10]: 54%
- IC50 ([4]; Table B1): 0.84 nM
- IC50 ([5]; Table B1): 8 nM

SMILES: O=C(Nc1ccc2cc1CCc1cccc(c1)Nc1ncc(Cl)c(n1)N2)c1ccc(Cl)nc1 [Example B69, 6-Chloro-N-[6-chloro-2,4,8,22-tetraazatetracyclo[14.3.1.1(3,7).1(9,13)]docosa-1(20),3(22),4,6,9(21),10,12,16,18-nonaen-12-yl]nicotinamide bis(trifluoroacetate)]
- IC50 ([1]; Table B1): 3.6 nM
- IC50 ([2]; Table B1): 0.6 nM
- ALK % of inhibition at a concentration of 500 nM or 1 mM [3, 10]: 68%
- IC50 ([4]; Table B1): 0.45 nM
- IC50 ([5]; Table B1): 2.3 nM

SMILES: O=C(Nc1cc2cc(c1)Nc1nc(ncc1Cl)Nc1cccc(c1)CC2)c1nc2ccccc2s1 [Example B204, N-[6-Chloro-2,4,8,22-tetraazatetracyclo[14.3.1.1(3,7).1(9,13)]docosa-1(20),3(22),4,6,9(21),10,12,16,18-nonaen-11-yl]-1,3-benzothiazole-2-carboxamide trifluoroacetate]
- IC50 ([1]; Table B1): > 1000 nM
- IC50 ([2]; Table B1): 500 nM
- IC50 [3, 11]: > 10000 nM
- IC50 ([4]; Table B1): > 1000 nM
- IC50 ([5]; Table B1): > 1000 nM

SMILES: O=C(NCc1ccccc1)c1cc2cc(c1)OCCSc1cccc(c1)Nc1nc(ncc1Cl)N2 [Example D51, N-Benzyl-6-chloro-17-oxa-14-thia-2,4,8,24-tetraazatetracyclo[16.3.1.1(3,7).1(9,13)]tetracosa-1(22),3(24),4,6,9(23),10,12,18,20-nonaene-20-carboxamide trifluoroacetate]
- IC50 ([1]; Table D1): 14 nM
- IC50 ([2]; Table D1): 1.2 nM
- IC50 ([3]; Table D1, 90 μM ATP): 910 nM
- IC50 ([4]; Table D1): 1.8 nM
- IC50 ([5]; Table D1): 4.5 nM

SMILES: NS(=O)(=O)Nc1ccc2cc1CCc1cccc(c1)Nc1ncc(Cl)c(n1)N2 [Example B184, N-[6-Chloro-2,4,8,22-tetraazatetracyclo[14.3.1.1(3,7).1(9,13)]docosa-1(20),3(22),4,6,9(21),10,12,16,18-nonaen-12-yl]sulfamide trifluoroacetate]
- IC50 ([1]; Table B1): 0.1 nM
- IC50 ([2]; Table B1): 0.1 nM
- ALK % of inhibition at a concentration of 500 nM or 1 mM [3, 10]: 82%
- IC50 ([4]; Table B1): 0.1 nM
- IC50 ([5]; Table B1): 0.14 nM

SMILES: CCNC(=O)Nc1ccc2cc1CCc1cccc(c1)Nc1ncc(Cl)c(n1)N2 [Example B115, N-[6-Chloro-2,4,8,22-tetraazatetracyclo[14.3.1.1(3,7).1(9,13)]docosa-1(20), 3(22),4,6,9(21),10,12,16,18-nonaen-12-yl]-N′-ethylurea trifluoroacetate]
- IC50 ([1]; Table B1): 29 nM
- IC50 ([2]; Table B1): 5.2 nM
- ALK % of inhibition at a concentration of 500 nM or 1 mM [3, 10]: 23%
- IC50 ([4]; Table B1): 1.4 nM
- IC50 ([5]; Table B1): 8.8 nM

SMILES: N#Cc1ccccc1S(=O)(=O)N1CCC(CC(=O)Nc2ccc3cc2CCc2cncc(c2)Nc2ncc(Cl)c(n2)N3)CC1 [Example A198, N-[6-Chloro-2,4,8,18,22-pentaazatetracyclo[14.3.1.1(3,7).1(9,13)]docosa-1(20),3(22),4,6,9(21),10,12,16,18-nonaen-12-yl]-2-{1-[(2-cyanophenyl)sulfonyl]piperidin-4-yl}acetamide bis(trifluoroacetate)]
- IC50 [1, 6]: > 200 nM
- IC50 [2, 7]: 50 nM
- ALK % of inhibition at a concentration of 500 nM or 1 mM [3, 8]: 56%
- IC50 [4, 9]: 0.4 nM
- IC50 [5]: 50 nM

SMILES: O=C(Nc1ccc2cc1CCc1cncc(c1)Nc1ncc(Cl)c(n1)N2)N[C@H]1CCN(C(=O)c2cc(C3CC3)on2)C1 [Example B270, N-[6-Chloro-2,4,8,18,22-pentaazatetracyclo[14.3.1.1(3,7).1(9,13)]docosa-1(20),3(22),4,6,9(21),10,12,16,18-nonaen-12-yl]-N′-{(3S)-1-[(5-cyclopropylisoxazol-3-yl)carbonyl]pyrrolidin-3-yl}urea bis(trifluoroacetate)]
- IC50 ([1]; Table B1): > 10000 nM
- IC50 ([2]; Table B1): 279 nM
- ALK % of inhibition at a concentration of 500 nM or 1 mM [3, 10]: 10%
- IC50 ([4]; Table B1): 20 nM
- IC50 ([5]; Table B1): 607 nM

SMILES: CCCC(=O)Nc1ccc2cc1CCc1cccc(c1)Nc1ncc(Cl)c(n1)N2 [Example B56, N-[6-Chloro-2,4,8,22-tetraazatetracyclo[14.3.1.1(3,7).1(9,13)]docosa-1(20), 3(22),4,6,9(21),10,12,16,18-nonaen-12-yl]butanamide trifluoroacetate]
- IC50 ([1]; Table B1): 1.5 nM
- IC50 ([2]; Table B1): 2 nM
- IC50 [3, 11]: 720 nM
- IC50 ([4]; Table B1): 5.9 nM
- IC50 ([5]; Table B1): 14 nM
